Results on 2 compounds are retold here after patent publication US10543198B2 (Celgene Quanticel Research, Inc., priority 2014, dated 2020).

Bounds are passed on as bounds.

Assay [1] relates to THP-1 (AML) cells. Put plainly: LSD1 CD11b Cellular Assay (flow cytometry). The class given is cell-based. Conditions: Homo sapiens, 96 h; CD11b expression in THP-1 cells, 4 days incubation. How it is done: To analyze LSD1 inhibitor efficacy in cells, a CD11b flow cytometry assay was performed. LSD1 inhibition induces CD11b expression in THP-1 (AML) cells which can be measured by flow cytometry. […] LSD1 test compounds were serially diluted in DMSO. The dilutions were added to each well accordingly to a final concentration of 0.2% DMSO. The cells were incubated at 37 degrees Celsius in 5% CO2 for 4 days. 250 μL of each well was transferred to a well in a 96 well round bottom plate. The plate was centrifuged at 1200 rpm at 4 degrees Celsius in a Beckman Coulter Alegra 6KR centrifuge for 5 minutes. The media was removed leaving the cells at the bottom of the wells. The cells were washed in 100 μL cold HBSS (Hank's Balanced Salt Solution) plus 2% BSA (Bovine Serum Albumin) solution and centrifuged at 1200 rpm at 4 degrees Celsius for 5 minutes. The wash was removed. […] The cells were centrifuged and washed two times in 100 μl HBSS plus 2% BSA. After the final spin the cells were resuspended in 100 μL HBSS plus 2% BSA containing 1 ug/mL DAPI (4′,6-diamidino-2-phenylindole). The cells were then analyzed by flow cytometry in a BD FACSAria machine. Cells were analyzed for CD11b expression. The percent of CD11b expressing cells for each inhibitor concentration was used to determine an IC50 curve for each compound analyzed.
(Flow cytometry measures light scatter and fluorescence of single cells or particles in a stream.)

Assay [2] has as its target full-length human LSD1 (Homo sapiens (Human), UniProt O60341). Kind of assay: In Vitro Enzyme Inhibition Assay - LSD-1 (TR-FRET). To be noted: 0.1 nM LSD1, H3K4me1-biotin peptide. The class given is biochemical. How it is done:
This assay determines the ability of a test compound to inhibit LSD1 demethylase activity.
The enzymatic assay of LSD1 activity is based on Time Resolved-Fluorescence Resonance Energy Transfer (TR-FRET) detection.
The ability of the compounds disclosed herein to inhibit LSD1 activity was quantified and the respective IC50 value was determined.
A general note: In TR-FRET formats the signal depends on donor and acceptor labels being close together.

`CCn1cnc2cc(-c3ncc(N4CCC(N)CC4)nc3-c3ccc(C#N)c(F)c3)c(F)c(F)c21` [Example 74, 4-[6-(4-aminopiperidin-1-yl)-3-(1-ethyl-6,7-difluorobenzimidazol-5-yl)pyrazin-2-yl]-2-fluorobenzonitrile]: the IC50 in assay [1] and in assay [2] was less than 100 nM in each case.

Consider `Cn1cnc2cc(-c3ncc(N4CCC(N)CC4)nc3-c3ccc(C#N)c(F)c3)c(F)c(F)c21` [Example 75, 4-[6-(4-aminopiperidin-1-yl)-3-(6,7-difluoro-1-methylbenzimidazol-5-yl)pyrazin-2-yl]-2-fluorobenzonitrile], for which the IC50 in assay [1] and in assay [2] was less than 100 nM in each case.

Broadly, the IC50 is the concentration that inhibits the measured activity by half. High values mean weaker potency, low ones greater potency.
